Assays:
Format in all cases: cell-based
Anabaena sp. = experiment: Test tube culture inhibition of Anabaena sp., algal units/ml
Method: (§1) The algae used in this particular study were Chlamydomonas sp., Chlorella vulgaris, Anabaena sp., and Anabaena flos-aquae. Cultures of these algae were obtained, subcultured, and aqueous stocks of algae in 400 ml BBM were prepared and were used in log phase growth to innoculate test cultures.
(§2) The fatty acids which were tested as algal inhibitors were 9, 10-dihydroxystearic acid, linoleic acid, dodecanoic acid, and ricinoleic acid.
(§3) The test procedure involved placing 15 ml of BBM into 25 ml test tubes and innoculating them with 0.2 ml of algal stock solution. Twenty test tubes were innoculated with each algae. Four of these cultures were used with each concentration of each of the fatty acids. Four tubes from each set served as controls. Four concentrations of the fatty acids were used for each alga. The concentrations studied were 0.5 PPM, 1.0 PPM, 5.0 PPM, and 10.0 PPM.
(§4) Algal cultures were incubated under constant light of about 200 foot-candles and at a temperature of 68° F. Bold's Basal Medium (BBM), a modification of Bristol's solution was the medium in which all the cultures were grown. Bold's Basal Medium was prepared as follows:
(§5) Concentrations of fatty acids and the amount of stock solution used to prepare them were as follows:
(§6) Each test tube contained 15 ml sterile BBM. To this was added an aliquot of 0.2 of algal stock solution. Then the appropriate aliquots of warm acid stock solution were added to the appropriate number of culture tubes. These cultures were then incubated 5 days and at that point were counted. The same cultures were also counted after a 12 day growth period.
(§7) Stock solutions of the fatty acids to be tested as algal inhibitors were made from a stock solution of 5% sodium bicarbonate in glass-distilled water. The 5% sodium bicarbonate stock solution was made by dissolving 150 grams of sodium bicarbonate in 3000 ml of glass-distilled water. To insure complete dissolution, the solution was heated and stirred on a magnetic stirrer hot plate. The warm solution was used in preparing the fatty acid stock solutions.
(§8) Quanitative phytoplankton values were determined using the random field method. Filaments, colonies, and aggregations of cells were recorded as algal units. Each unit consisted of approximately 6 cells. Unicellular algae were counted as separate units. Algal counts were made from each of three duplicate cultures. One ml of the algal sample was placed in a Sedgwick-Rafter counting chamber, which is 50 mm long by 20 mm, wide by 1 mm deep. A Wild Heerbrugg, compound microscope with a Whipple grid eyepiece was used to determine quantitative algae values.
(§9) One ml of the algal solution was placed in the counting chamber, and two drops of methyl cellulose were added to minimize the movement of Chlamydomonas sp. Ten random fields were counted and all organisms within the Whipple grid field were enumerated.
(§10) The following formula used to calculate the numbers per milliliter from the field counts: [formula] where: C=number of organisms counted,
(§11) The area of the Whipple grid used was 0.46 mm^2, and the depth of a field was 1 mm. Results of the counts were reported as algal units/ml.

Anabaena flos-aquae = experiment: Test tube culture inhibition of Anabaena flos-aquae, algal units/ml
Method: as §1, §2, §3, §4, §5, §6, §7, §8, §9, §10, §11

Chlamydomonas sp. = experiment: Test tube culture inhibition of Chlamydomonas sp., algal units/ml
Method: as §1, §2, §3, §4, §5, §6, §7, §8, §9, §10, §11

For `CCCCCCCCC(O)C(O)CCCCCCCC(=O)O` (stereo not shown) [9,10-Dihydroxystearic Acid, 9,10-dihydroxystearic acid], the Algal units/ml (Anabaena sp.; 5 days, 0.5 PPM) was 34130 units/ml, the Algal units/ml (Anabaena sp.; 5 days, 1.0 PPM) was 38043 units/ml and the Algal units/ml (Anabaena sp.; 5 days, 5.0 PPM) was 30217 units/ml. For the same molecule, the Algal units/ml (Anabaena sp.; 5 days, 10.0 PPM) was 23261 units/ml, the “inhibition” value (Anabaena sp.; 5 days, 10.0 PPM) was “effective as a inhibitor” and the inhibition of growth at 10 ppm (Anabaena sp.; 288 h, 12 days, 10 PPM, read-out: reduction of algal units/ml, % of the control) was 16.6%. The Algal units/ml (Anabaena sp.; 12 days, 0.5 PPM) was 158043 units/ml, the Algal units/ml (Anabaena sp.; 12 days, 1.0 PPM) was 166739 units/ml and the Algal units/ml (Anabaena sp.; 12 days, 5.0 PPM) was 106957 units/ml. The Algal units/ml (Anabaena sp.; 12 days, 10.0 PPM) was 98473 units/ml, the Algal units/ml (Anabaena flos-aquae; 5 days, 0.5 PPM) was 4348 units/ml and the Algal units/ml (Anabaena flos-aquae; 5 days, 1.0 PPM) was 4348 units/ml. For the same molecule, the “effect on algal growth” value (Anabaena flos-aquae; 5 days, 1.0 PPM and less) was “stimulated”, the Algal units/ml (Anabaena flos-aquae; 5 days, 5.0 PPM) was 2174 units/ml and the Algal units/ml (Anabaena flos-aquae; 5 days, 10.0 PPM) was 217 units/ml. The Algal units/ml (Anabaena flos-aquae; 12 days, 0.5 PPM) was 18478 units/ml, the Algal units/ml (Anabaena flos-aquae; 12 days, 1.0 PPM) was 13478 units/ml and the Algal units/ml (Anabaena flos-aquae; 12 days, 5.0 PPM) was 9130 units/ml. The Algal units/ml (Anabaena flos-aquae; 12 days, 10.0 PPM) was 3261 units/ml, the “effect on algal growth” value (Anabaena flos-aquae; 12 days, all concentrations) was “inhibitory effect” and the inhibition of growth at 10 ppm (Anabaena flos-aquae; Dolichospermum flos-aquae, 120 h, 5 days, 10 PPM, read-out: reduction of algal units/ml of the control) was 90.9%. The Algal units/ml (Chlamydomonas sp.; 5 days, 0.5 PPM) was 10217 units/ml, the Algal units/ml (Chlamydomonas sp.; 5 days, 1.0 PPM) was 10436 units/ml and the Algal units/ml (Chlamydomonas sp.; 5 days, 5.0 PPM) was 11304 units/ml. The “reduction of number of algal units/ml vs control” value (Chlamydomonas sp.; 5 days, 10 PPM) was 5,000 algal units/ml, the Algal units/ml (Chlamydomonas sp.; 5 days, 10.0 PPM) was 6522 units/ml and the Algal units/ml (Chlamydomonas sp.; 12 days, 0.5 PPM) was 47826 units/ml. It also gave an Algal units/ml (Chlamydomonas sp.; 12 days, 1.0 PPM) of 46739 units/ml, an Algal units/ml (Chlamydomonas sp.; 12 days, 5.0 PPM) of 50000 units/ml and an Algal units/ml (Chlamydomonas sp.; 12 days, 10.0 PPM) of 53478 units/ml. For the same molecule, the inhibition of growth at 10 ppm (Chlamydomonas sp.; Chlamydomonas, 120 h, 5 days, 10 PPM, read-out: reduction of number of algal units/ml, % of the control) was 43.4%.

Source: patent publication US4398937A, “Selective algaecides for control of cyanochloronta” (The University of Southern Mississippi, priority 1981, dated 1983)
